# Results reported in patent US20220071932A1, “Compositions and Methods Against Stress-Induced Affective Disorders and Their Associated Symptoms” (The Trustees of Columbia University in the City of New York, priority 2019, published 2022).
# What was measured:
# 129S6/SvEv mice [1] = test: Open field (OF); type: in vivo; conditions: for Open Field, Distance Travelled Min 1 (cm), p (Fisher's LSD) / Open Field, Distance Travelled Min 2 (cm), p (Fisher's LSD): cohort 5 min before re-exposure 1, FIG. 9L
# Description: (§1) The OF assay was administered as previously described (47). Briefly, motor activity was quantified in 4 Plexiglas open field boxes 43×43 cm^2 (MED Associates, Georgia, Vt.). Two sets of 16 pulse-modulated infrared photobeams on opposite walls 2.5-cm apart recorded x-y ambulatory movements. Activity chambers were computer interfaced for data sampling at 100-ms resolution. The computer defined grid lines that dividing center and surround regions, with the center square consisting of four lines 11 cm from the wall.
# [2] = test system: NR2A subunit of the NMDAR; test: Western blotting of hippocampus after fear memory recall; type: in vivo, mice; conditions: one week prior to CFC, (R,S)-ketamine 30 mg/kg, FENM 20 mg/kg, vs saline
# Description: Samples from mouse hippocampus and prefrontal cortex were dissected, snap frozen, and stored at −80° C. Brain tissue was homogenized in RIPA buffer with protease inhibitor (Thermo Fisher Scientific, Waltham, Mass.; Roche, Basel, Switzerland) using a motorized pestle mixer (Argos Technologies, Vernon Hills, Ill.) and spun at 1000 g×14 minutes to remove cell debris. Protein concentration was determined using a Bradford protein assay (Bio-Rad, Hercules, Calif.). 4× Laemmli buffer and β-mercaptoethanol (Bio-Rad, Hercules, Calif.) was added to the samples, which were then boiled at 90° C. for five minutes. 50 μg of each sample was separated by SDS/PAGE, and proteins were transferred onto PVDF membrane (GE Healthcare Life Sciences, Marlborough, Mass.). Membranes were then blocked in 1×TBS with 0.1% Tween-20 and 5% BSA for 1 hr at RT. Incubation with primary antibodies was performed at 4° C. overnight (rabbit anti-β-tubulin, 1:10000, Abc am, Cambridge, UK, ab6046; rabbit anti-NR2A, 1:1000, Alomone Labs, Jerusalem, Israel, AGC-002; rabbit anti-NR2B, 1:600, Alomone Labs, Jerusalem, Israel, AGC-003; mouse anti-GluR1, 1:1000, Millipore Sigma, Burlington, Mass., MAB2263) in 1×TBS with 0.1% Tween-20 and 5% BSA. […]
# 129S6/SvEv mice [3] = test: Anxiety-like behavior, summary of anxiety tests (OF, MB, EPM); type: in vivo; conditions: for behavior in all anxiety tests, with the exception of the time spent in the center of the OF: 5 min after context re-exposure 1; for behavior in all anxiety tests, with the exception of the time spent in the center of the OF / behavior in all anxiety tests: (R,S)-ketamine 30 mg/kg, FENM 20 mg/kg, vs saline; for behavior in all anxiety tests: 5 minutes prior to context re-exposure 1 (24 h after CFC)
# Description: Testing was performed as previously described (47). Briefly, the maze is a plus-cross-shaped apparatus consisting of four arms, two open and two enclosed by walls, linked by a central platform at a height of 50 cm from the floor. Mice were individually placed in the center of the maze facing an open arm and were allowed to explore the maze for 5 min. The time spent in and the number of entries into the open arms was used as an anxiety index. Videos were scored using ANY-maze behavior tracking software (Stoelting, Wood Dale, Ill.).
# as §1
# The MB assay was conducted in a clean cage (10.5 in×5.5 in) containing soft pliable Beta Chip bedding (Northeastern Products Corp, Warrensburg, N.Y.). The cage contained 16 marbles set up in 4 rows of 4 across. Mice were given 30 minutes to explore and bury. At the end of the assay, the percentage of marbles buried was calculated.
# [4] = 1 week prior to CFC, (R,S)-ketamine 30 mg/kg, FENM 10, 20 or 30 mg/kg, vs saline
# [5] = 5 min prior to CFC, (R,S)-ketamine 30 mg/kg, FENM 20 mg/kg, vs saline
# [6] = Fisher's PLSD after RMANOVA, drug 5 minutes after stress, FENM 20 mg/kg, (R,S)-ketamine 30 mg/kg, FIG. 3L
# [7] = Fisher's PLSD, drug 5 minutes after stress, FENM 20 mg/kg, (R,S)-ketamine 30 mg/kg
# [8] = Saline vs. (R,S)-ketamine (30 mg/kg)
# [9] = Fisher's PLSD, drug 5 minutes after stress, (R,S)-ketamine 30 mg/kg vs. FENM 20 mg/kg
# [10] = non-stressed mice, FENM 20 mg/kg 1 hour before the start of the OF, vs saline
structure (smiles),measurement,setting,value
"CNC1(c2ccccc2Cl)CCCCC1=O (racemic) [(R,S)-ketamine, reference compound]",distance travelled in the OF,129S6/SvEv mice [1]; [4],did not alter
same,time spent in the center of the OF arena,129S6/SvEv mice [1]; [4],did not alter
same,distance travelled in the OF,129S6/SvEv mice [1]; [5],did not alter
same,time spent in the center of the OF arena,129S6/SvEv mice [1]; [5],did not alter
same,"p, Distance Travelled (cm), OF, Saline vs. drug",129S6/SvEv mice [1]; [6],0.9319
same,"p, Distance Travelled Min 1 (cm), OF, Saline vs. drug",129S6/SvEv mice [1]; [7],0.0589
same,"p, Distance Travelled Min 2 (cm), OF, Saline vs. drug",129S6/SvEv mice [1]; [7],0.0098
same,"p, Distance Travelled Min 3 (cm), OF, Saline vs. drug",129S6/SvEv mice [1]; [7],0.1586
same,"p, Distance Travelled Min 4 (cm), OF, Saline vs. drug",129S6/SvEv mice [1]; [7],0.6504
same,"p, Distance Travelled Min 5 (cm), OF, Saline vs. drug",129S6/SvEv mice [1]; [7],0.3454
same,"p, Distance Travelled Min 6 (cm), OF, Saline vs. drug",129S6/SvEv mice [1]; [7],0.7410
same,"p, Distance Travelled Min 7 (cm), OF, Saline vs. drug",129S6/SvEv mice [1]; [7],0.1344
same,"p, Distance Travelled Min 8 (cm), OF, Saline vs. drug",129S6/SvEv mice [1]; [7],0.1467
same,"p, Distance Travelled Min 9 (cm), OF, Saline vs. drug",129S6/SvEv mice [1]; [7],0.0061
same,"p, Distance Travelled Min 10 (cm), OF, Saline vs. drug",129S6/SvEv mice [1]; [7],0.4667
same,"Open Field, Distance Travelled Min 1 (cm), p (Fisher's LSD)",129S6/SvEv mice [1]; [8],0.3306
same,"Open Field, Distance Travelled Min 2 (cm), p (Fisher's LSD)",129S6/SvEv mice [1]; [8],0.5200
same,NR2A expression in the hippocampus,[2],comparable
same,"behavior in all anxiety tests, with the exception of the time spent in the center of the OF",129S6/SvEv mice [3],did not alter behavior
same,behavior in all anxiety tests,129S6/SvEv mice [3],did not alter behavior
"NC12CC3CC(C1)CC(CCF)(C3)C2 [FENM, 1-amino-3-fluoroethyl-adamantane]",distance travelled in the OF,129S6/SvEv mice [1]; [4],did not alter
same,time spent in the center of the OF arena,129S6/SvEv mice [1]; [4],did not alter
same,time spent in the center of the OF,"129S6/SvEv mice [1]; 5 min after context re-exposure 1, FENM 20 mg/kg, vs saline",significantly increased
same,distance travelled in the OF,129S6/SvEv mice [1]; [5],did not alter
same,time spent in the center of the OF arena,129S6/SvEv mice [1]; [5],did not alter
same,"Open Field, Distance Travelled Min 1 (cm), p (Fisher's LSD)","129S6/SvEv mice [1]; (R,S)-ketamine (30 mg/kg) vs. FENM (20 mg/kg)",0.0129
same,"p, Distance Travelled (cm), OF, (R,S)-ketamine vs. FENM","129S6/SvEv mice [1]; Fisher's PLSD after RMANOVA, drug 5 minutes after stress, (R,S)-ketamine 30 mg/kg vs. FENM 20 mg/kg, FIG. 3L",0.8632
same,"p, Distance Travelled (cm), OF, Saline vs. drug",129S6/SvEv mice [1]; [6],0.7967
same,"p, Distance Travelled Min 1 (cm), OF, (R,S)-ketamine vs. FENM",129S6/SvEv mice [1]; [9],0.5911
same,"p, Distance Travelled Min 2 (cm), OF, (R,S)-ketamine vs. FENM",129S6/SvEv mice [1]; [9],0.8997
same,"p, Distance Travelled Min 3 (cm), OF, (R,S)-ketamine vs. FENM",129S6/SvEv mice [1]; [9],0.5565
same,"p, Distance Travelled Min 4 (cm), OF, (R,S)-ketamine vs. FENM",129S6/SvEv mice [1]; [9],0.7043
same,"p, Distance Travelled Min 5 (cm), OF, (R,S)-ketamine vs. FENM",129S6/SvEv mice [1]; [9],0.5847
same,"p, Distance Travelled Min 6 (cm), OF, (R,S)-ketamine vs. FENM",129S6/SvEv mice [1]; [9],0.7385
same,"p, Distance Travelled Min 7 (cm), OF, (R,S)-ketamine vs. FENM",129S6/SvEv mice [1]; [9],0.4416
same,"p, Distance Travelled Min 8 (cm), OF, (R,S)-ketamine vs. FENM",129S6/SvEv mice [1]; [9],0.7658
same,"p, Distance Travelled Min 9 (cm), OF, (R,S)-ketamine vs. FENM",129S6/SvEv mice [1]; [9],0.8899
same,"p, Distance Travelled Min 10 (cm), OF, (R,S)-ketamine vs. FENM",129S6/SvEv mice [1]; [9],0.9456
same,"p, Distance Travelled Min 1 (cm), OF, Saline vs. drug",129S6/SvEv mice [1]; [7],0.0158
same,"p, Distance Travelled Min 2 (cm), OF, Saline vs. drug",129S6/SvEv mice [1]; [7],0.0068
same,"p, Distance Travelled Min 3 (cm), OF, Saline vs. drug",129S6/SvEv mice [1]; [7],0.4093
same,"p, Distance Travelled Min 4 (cm), OF, Saline vs. drug",129S6/SvEv mice [1]; [7],0.4054
same,"p, Distance Travelled Min 5 (cm), OF, Saline vs. drug",129S6/SvEv mice [1]; [7],0.1372
same,"p, Distance Travelled Min 6 (cm), OF, Saline vs. drug",129S6/SvEv mice [1]; [7],0.5067
same,"p, Distance Travelled Min 7 (cm), OF, Saline vs. drug",129S6/SvEv mice [1]; [7],0.4644
same,"p, Distance Travelled Min 8 (cm), OF, Saline vs. drug",129S6/SvEv mice [1]; [7],0.0809
same,"p, Distance Travelled Min 9 (cm), OF, Saline vs. drug",129S6/SvEv mice [1]; [7],0.0040
same,"p, Distance Travelled Min 10 (cm), OF, Saline vs. drug",129S6/SvEv mice [1]; [7],0.5094
same,"Open Field, Distance Travelled Min 1 (cm), p (Fisher's LSD)",129S6/SvEv mice [1]; Saline vs. FENM (20 mg/kg),0.1253
same,"Open Field, Distance Travelled Min 2 (cm), p (Fisher's LSD)",129S6/SvEv mice [1]; Saline vs. FENM (20 mg/kg),0.0385
same,distance travelled in the OF,129S6/SvEv mice [1]; [10],comparable
same,time in the center of the OF,129S6/SvEv mice [1]; [10],comparable
same,time in the periphery of the OF,129S6/SvEv mice [1]; [10],comparable
same,"p, Distance Travelled (cm), OF, Saline vs. FENM","129S6/SvEv mice [1]; t-test, Baseline, anxiety cohort, FENM 20 mg/kg, FIG. 7C",0.1878
same,"p, Time in Center (sec), OF, Saline vs. FENM","129S6/SvEv mice [1]; t-test, Baseline, anxiety cohort, FENM 20 mg/kg, FIG. 7D",0.1241
same,"p, Time in Periphery (sec), OF, Saline vs. FENM","129S6/SvEv mice [1]; t-test, Baseline, anxiety cohort, FENM 20 mg/kg, FIG. 7E",0.1225
same,NR2A expression in the hippocampus,[2],comparable
same,"behavior in all anxiety tests, with the exception of the time spent in the center of the OF",129S6/SvEv mice [3],did not alter behavior
same,behavior in all anxiety tests,129S6/SvEv mice [3],did not alter behavior
same,Behavior: Anxiety-like,"129S6/SvEv mice [3]; Antidepressant (5 min after stress), dose 20 mg/kg",↓
same,Behavior: Anxiety-like,"129S6/SvEv mice [3]; Antidepressant (5 min after stress), dose 30 mg/kg",↓
same,Behavior: Anxiety-like,"129S6/SvEv mice [3]; Extinction (5 min after re-exposure 1), dose 20 mg/kg",↓
